Results published in patent publication US9980943B2, “Methods of treating muscular dystrophy” (BOARD OF REGENTS OF THE NEVADA SYSTEM OF HIGHER EDUCATION, …, priority 2013, dated 2018).

Columns and labels:
Format in all cases: cell-based, mouse
[1] = system: β-galactosidase in CMV-LacZ C2C12 myoblasts; test: CMV-LacZ secondary screen in C2C12 myoblasts (β-Gal stabilizing assay); conditions: CMV-LacZ C2C12 myoblasts
Method in brief: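 First, C2C12 myoblasts were transfected with a linearized CMV-LACZ vector and clonal lines selected by FDG β-gal assay. Then cells were exposed to compounds at 0.5, 1, 5, 10, 20 and 40 μM in 96-well format, two replicates each, and β-gal measured.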

[2] = system: α7 integrin (LacZ reporter in α7+/LacZ myotubes); test: Myotube α7 integrin FDG assay (Burkin assay in myotubes, 96-well); conditions: myotubes
[3] = system: α7 integrin (LacZ reporter in α7βgal+/− myoblasts); test: Myoblast α7+/LacZ integrin FDG assay (Burkin assay in myoblasts, 96-well); conditions: α7+/LacZ myoblasts, 96-well
[4] = system: β-galactosidase in CMV-LacZ C2C12 myotubes; test: CMV-LacZ secondary screen in C2C12 myotubes (β-Gal stabilizing assay); conditions: C2C12 CMV-LacZ myotubes, fold relative to DMSO
Method in brief: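 Dose-response runs at 0.5–40 μM (0.5, 1, 5, 10, 20, 40 μM; N=2 per point) used a clonal C2C12 line carrying CMV-LacZ. Cells were assayed as myoblasts or as differentiated myotubes, and β-galactosidase levels were read with the FDG fluorogenic substrate.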

| Compound | CMV-LACZ in Myoblasts (β-galactosidase activity relative to DMSO) ([1]; 0.5 uM) | CMV-LACZ in Myoblasts (β-galactosidase activity relative to DMSO) ([1]; 1 uM) | CMV-LACZ in Myoblasts (β-galactosidase activity relative to DMSO) ([1]; 5 uM) | CMV-LACZ in Myoblasts (β-galactosidase activity relative to DMSO) ([1]; 10 uM) | CMV-LACZ in Myoblasts (β-galactosidase activity relative to DMSO) ([1]; 20 uM) | CMV-LACZ in Myoblasts (β-galactosidase activity relative to DMSO) ([1]; 40 uM) | Burkin Assay in Myotubes, α7 integrin LacZ reporter signal relative to DMSO ([2]; 0.5 uM) | Burkin Assay in Myotubes, α7 integrin LacZ reporter signal relative to DMSO ([2]; 1 uM) | Burkin Assay in Myotubes, α7 integrin LacZ reporter signal relative to DMSO ([2]; 5 uM) | Burkin Assay in Myotubes, α7 integrin LacZ reporter signal relative to DMSO ([2]; 10 uM) | Burkin Assay in Myotubes, α7 integrin LacZ reporter signal relative to DMSO ([2]; 20 uM) | Burkin Assay in Myotubes, α7 integrin LacZ reporter signal relative to DMSO ([2]; 40 uM) | Burkin Assay in Myoblasts, signal relative to DMSO ([3]; 0.5 uM) | Burkin Assay in Myoblasts, signal relative to DMSO ([3]; 1 uM) | Burkin Assay in Myoblasts, signal relative to DMSO ([3]; 5 uM) | Burkin Assay in Myoblasts, signal relative to DMSO ([3]; 10 uM) | Burkin Assay in Myoblasts, signal relative to DMSO ([3]; 20 uM) | Burkin Assay in Myoblasts, signal relative to DMSO ([3]; 40 uM) | CMV-LACZ in Myotubes, signal relative to DMSO ([4]; 0.5 uM) | CMV-LACZ in Myotubes, signal relative to DMSO ([4]; 1 uM) | further results |
| --- | --- | --- | --- | --- | --- | --- | --- | --- | --- | --- | --- | --- | --- | --- | --- | --- | --- | --- | --- | --- | --- |
| Cc1cc(OCC(=O)NC(C)C)ccc1Cl [MLS000684034-01] | 1.2525 | 1.1492 | 1.2045 | 1.0568 | 0.5374 | 0.3100 | 0.9731 | 0.9536 | 0.8383 | 0.8076 | 0.7403 | 0.7385 | 0.999 | 1.02 | 0.7872 | 0.6258 | 0.4225 | 0.3085 | 1.0962 | 0.9810 | CMV-LACZ in Myotubes, signal relative to DMSO ([4]; 5 uM): 1.1407; CMV-LACZ in Myotubes, signal relative to DMSO ([4]; 10 uM): 1.1903; CMV-LACZ in Myotubes, signal relative to DMSO ([4]; 20 uM): 1.2347; CMV-LACZ in Myotubes, signal relative to DMSO ([4]; 40 uM): 1.0105 |
| CCc1nc2ccccc2c(C(=O)NCc2ccccc2)c1C [MLS000688267-01] | 1.0950 | 1.1579 | 0.9129 | 0.8935 | 1.1407 | 1.0774 | 0.9011 | 0.8373 | 1.132 | 1.101 | 0.8808 | 1.131 | 1.092 | 1.104 | 1.358 | 0.9133 | 1.0466 | 1.107 | 0.8648 | 1.1333 | CMV-LACZ in Myotubes, signal relative to DMSO ([4]; 5 uM): 0.9634; CMV-LACZ in Myotubes, signal relative to DMSO ([4]; 10 uM): 1.2248; CMV-LACZ in Myotubes, signal relative to DMSO ([4]; 20 uM): 0.9505; CMV-LACZ in Myotubes, signal relative to DMSO ([4]; 40 uM): 1.1505 |
| N#C/C(=C/c1ccc(N2CCOCC2)o1)C(=O)Nc1ccccc1 [MLS000689218-01] | 1.1977 | 1.2273 | 0.8689 | 1.0813 | 1.2835 | 1.6337 | 0.9663 | 1.083 | 0.97 | 0.9829 | 1.008 | 0.9676 | 1.068 | 1.171 | 1.132 | 1.051 | 1.07 | 1.037 | 0.9657 | 0.9514 | CMV-LACZ in Myotubes, signal relative to DMSO ([4]; 5 uM): 1.3684; CMV-LACZ in Myotubes, signal relative to DMSO ([4]; 10 uM): 1.2135; CMV-LACZ in Myotubes, signal relative to DMSO ([4]; 20 uM): 1.4900; CMV-LACZ in Myotubes, signal relative to DMSO ([4]; 40 uM): 1.7990 |
